Consider 28 compounds from US20230002361A1, “2H-INDAZOLE DERIVATIVES AND THEIR USE IN THE TREATMENT OF DISEASE” (BIOGEN MA INC., priority 2019, published 2023).

The target of series [1] is T1, IRAK4 (Homo sapiens, UniProt Q9NWZ3).
T1 construct: with 0.1 nM IRAK4, 1.6 μM of biotinylated peptide substrate and 10 μM ATP
T1 sequence (Q9NWZ3 1-460): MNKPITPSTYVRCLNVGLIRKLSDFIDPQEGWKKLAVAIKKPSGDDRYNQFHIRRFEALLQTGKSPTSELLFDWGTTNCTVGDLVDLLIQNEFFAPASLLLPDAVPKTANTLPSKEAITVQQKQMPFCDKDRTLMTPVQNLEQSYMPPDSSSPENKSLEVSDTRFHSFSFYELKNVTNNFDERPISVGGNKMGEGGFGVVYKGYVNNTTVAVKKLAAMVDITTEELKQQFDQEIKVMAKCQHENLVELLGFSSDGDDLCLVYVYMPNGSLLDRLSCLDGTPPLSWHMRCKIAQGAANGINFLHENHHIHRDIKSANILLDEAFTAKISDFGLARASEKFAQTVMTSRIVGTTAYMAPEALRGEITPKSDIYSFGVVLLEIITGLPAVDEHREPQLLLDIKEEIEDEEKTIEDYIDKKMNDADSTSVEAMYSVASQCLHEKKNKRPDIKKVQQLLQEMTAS
The series can be described thus: IRAK4 MSD Biochemical Assay (1 mM ATP, 2 h). Particulars: room temperature. In short, it runs like this: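 Run with 1 mM ATP and […] for 2 h, then quenched with EDTA, pH 8. The phosphorylated biotinylated peptide was captured on streptavidin plates and detected with anti-phospho-threonine antibody plus Sulfo-Tag secondary by MSD electrochemiluminescence.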

The target of series [2] is T2, MDR1 (P-gp) (Homo sapiens, UniProt P08183).
T2 construct: host or cells: MDCK cells
The series can be described thus: MDR1-MDCK assay (efflux ratio). The format is in vitro ADME. Particulars: human, MDCK-MDR1, 1 μM compound, 120 minutes incubation; read-out: MDR1-MDCK Efflux Ratio; (B-A/A-B). In short, it runs like this: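 Human MDR1-transfected MDCK monolayers, cultured 7 days on transwell inserts with TEER checked, were dosed with compound at 1 μM in HBSS-HEPES. Transport was measured in both A-B and B-A directions. Efflux ratio came from the directional permeabilities, with mass balance also calculated.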

Where [3] appears, read: read-out: IRAK4 MSD Biochemical Assay (1 mM ATP, 2 h) IC50.

Where a name gives a salt, the structure may show the parent alone. Read-outs that look alike come from different tables or passages of the source.

T2 sequence (P08183 whole entry): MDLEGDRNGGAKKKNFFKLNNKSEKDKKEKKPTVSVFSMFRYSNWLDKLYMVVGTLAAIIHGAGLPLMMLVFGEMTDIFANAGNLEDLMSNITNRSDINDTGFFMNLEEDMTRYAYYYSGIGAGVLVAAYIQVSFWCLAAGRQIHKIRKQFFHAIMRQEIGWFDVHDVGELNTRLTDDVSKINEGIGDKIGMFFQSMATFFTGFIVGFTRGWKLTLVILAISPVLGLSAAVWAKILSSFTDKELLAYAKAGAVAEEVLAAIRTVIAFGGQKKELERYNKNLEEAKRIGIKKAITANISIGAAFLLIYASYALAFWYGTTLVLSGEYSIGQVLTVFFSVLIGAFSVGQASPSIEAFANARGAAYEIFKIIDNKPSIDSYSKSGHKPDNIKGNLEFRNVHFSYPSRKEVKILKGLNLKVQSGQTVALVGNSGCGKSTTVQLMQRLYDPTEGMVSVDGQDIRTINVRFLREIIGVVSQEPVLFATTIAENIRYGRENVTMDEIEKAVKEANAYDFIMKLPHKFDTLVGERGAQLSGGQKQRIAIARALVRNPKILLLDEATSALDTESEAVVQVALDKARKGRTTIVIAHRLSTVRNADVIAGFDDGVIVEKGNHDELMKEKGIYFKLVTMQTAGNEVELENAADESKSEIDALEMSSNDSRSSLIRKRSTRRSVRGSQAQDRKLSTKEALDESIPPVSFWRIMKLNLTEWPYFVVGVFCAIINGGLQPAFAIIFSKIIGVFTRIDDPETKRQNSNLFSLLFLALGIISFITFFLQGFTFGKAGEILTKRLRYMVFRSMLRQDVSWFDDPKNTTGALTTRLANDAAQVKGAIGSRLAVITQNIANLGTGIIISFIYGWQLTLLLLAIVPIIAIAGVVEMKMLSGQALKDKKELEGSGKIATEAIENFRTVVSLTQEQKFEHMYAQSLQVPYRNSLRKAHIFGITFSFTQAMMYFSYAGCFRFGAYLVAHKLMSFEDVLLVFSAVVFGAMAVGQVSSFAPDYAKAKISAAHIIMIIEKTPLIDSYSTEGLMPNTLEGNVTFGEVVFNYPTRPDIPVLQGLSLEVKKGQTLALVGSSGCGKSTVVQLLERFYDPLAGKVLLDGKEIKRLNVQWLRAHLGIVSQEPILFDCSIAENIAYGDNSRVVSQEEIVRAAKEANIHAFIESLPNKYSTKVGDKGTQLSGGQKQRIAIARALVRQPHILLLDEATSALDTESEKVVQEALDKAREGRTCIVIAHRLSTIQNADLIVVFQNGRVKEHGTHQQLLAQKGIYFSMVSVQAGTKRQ

For orientation: IC50 means the concentration needed to halve the response being measured. On to `CC(C)Oc1cc2nn(C34CCC(C)(C3)OC4)cc2cc1C(=O)Nc1cccc(C(F)F)n1` (centres unmarked) [Example 97, N-(6-(difluoromethyl)pyridin-2-yl)-6-isopropoxy-2-(1-methyl-2-oxabicyclo[2.2.1]heptan-4-yl)-2H-indazole-5-carboxamide], for which the IC50 in series [1] (setting [3]) was found to be 0.2 nM. Also, in series [2], the efflux ratio at 120 min, 1 μM is 1.1.

On to `Cc1cnc2c(NC(=O)c3cc4cn(C56COC(C)(C5)C6)nc4cc3OC3CCC3)cnn2c1` [Example 56, 6-Cyclobutoxy-2-(1-methyl-2-oxabicyclo[2.1.1]hexan-4-yl)-N-(6-methylpyrazolo[1,5-a]pyrimidin-3-yl)-2H-indazole-5-carboxamide Trifluoroacetate], for which, in series [1] (setting [3]), the IC50 worked out at 0.5 nM. Also, the efflux ratio at 120 min, 1 μM in series [2] was found to be 2.

With `CC(C)Oc1cc2nn([C@@H]3CCOC3)cc2cc1C(=O)Nc1cccc(C(F)F)n1` (single isomer, unassigned) [Example 45], in series [1] (setting [3]), the half-inhibitory concentration (IC50) stood at 2.1 nM. Besides, in series [2], the efflux ratio at 120 min, 1 μM came out at 1.

Regarding `Cl.O=C(Nc1cccc(C(F)F)n1)c1cc2cn(C3CCOCC3)nc2cc1O[C@H]1C[C@H](C(F)F)C1` [Example 48, 6-((1R,3R)-3-(difluoromethyl)cyclobutoxy)-N-(6-(difluoromethyl)pyridin-2-yl)-2-(tetrahydro-2H-pyran-4-yl)-2H-indazole-5-carboxamide Hydrochloride], in series [1] (setting [3]), the IC50 was 0.5 nM. Besides, in series [2], the efflux ratio at 120 min, 1 μM was found to be 1.3.

Regarding `CC12CCC(n3cc4cc(C(=O)Nc5cnn6cccnc56)c(OC5CCC5)cc4n3)(CO1)C2` (single isomer, unassigned) [Example 137], the IC50 in series [1] (setting [3]) turned out to be 0.2 nM. Also, in series [2], the efflux ratio at 120 min, 1 μM was found to be 2.1.

In the case of `CC(C)Oc1nc2nn(C[C@H]3CCOC3)cc2cc1C(=O)Nc1cccc(C(F)F)n1` (single isomer, unassigned) [Example 106], the IC50 in series [1] (setting [3]) was found to be 0.4 nM. Further, in series [2], the efflux ratio at 120 min, 1 μM was 0.8.

For the compound `COCCCn1cc2cc(C(=O)Nc3cccc(C(F)F)n3)c(OC(C)C)cc2n1.Cl` [Example 26, N-(6-(difluoromethyl)pyridin-2-yl)-6-isopropoxy-2-(3-methoxypropyl)-2H-indazole-5-carboxamide hydrochloride], the IC50 in series [1] (setting [3]) amounted to 0.9 nM. Further, in series [2], the efflux ratio at 120 min, 1 μM was determined as 0.7.

`CC(C)Oc1cc2nn([C@@]34CC[C@@](C)(C3)OC4)cc2cc1C(=O)Nc1cnn2cccnc12` (single isomer, unassigned) [Example 128]: the IC50 in series [1] (setting [3]) was determined as 0.5 nM. Also, the efflux ratio at 120 min, 1 μM in series [2] was determined as 1.4.

In the case of `Cn1cccc(NC(=O)c2cc3cn(C[C@H]4CCOC4)nc3nc2OC2CCC2)c1=O` (single isomer, unassigned) [Example 112], the IC50 in series [1] (setting [3]) was 3.4 nM. In series [2], the efflux ratio at 120 min, 1 μM was 8.3.

Regarding `COc1ncccc1NC(=O)c1cc2cn(CC3CCOC3)nc2nc1OC(C)C` (centres unmarked) [Example 78, 6-Isopropoxy-N-(2-methoxypyridin-3-yl)-2-((tetrahydrofuran-3-yl)methyl)-2H-pyrazolo[3,4-b]pyridine-5-carboxamide], in series [1] (setting [3]), the IC50 turned out to be 1.2 nM. Besides, in series [2], the efflux ratio at 120 min, 1 μM stood at 1.4.

Regarding `CC(C)Oc1nc2nn(C3CCOCC3)cc2cc1C(=O)Nc1cnn2cccnc12` [Example 82, 6-Isopropoxy-N-(pyrazolo[1,5-a]pyrimidin-3-yl)-2-(tetrahydro-2H-pyran-4-yl)-2H-pyrazolo[3,4-b]pyridine-5-carboxamide], the IC50 in series [1] (setting [3]) was found to be 1.2 nM. The efflux ratio at 120 min, 1 μM in series [2] was 2.6.

For the compound `COc1cccc(NC(=O)c2cc3cn(CC45COC(C)(C4)C5)nc3cc2OC)n1.O=C(O)C(F)(F)F` [Example 3, 6-Methoxy-N-(6-methoxypyridin-2-yl)-2-((1-methyl-2-oxabicyclo[2.1.1]hexan-4-yl)methyl)-2H-indazole-5-carboxamide trifluoroacetate], the IC50 in series [1] (setting [3]) was determined as 10000 nM. The efflux ratio at 120 min, 1 μM in series [2] stood at 0.9.

On to `CC(C)Oc1cc2nn(CC3CCOC3)cc2cc1C(=O)Nc1cnn2cccnc12` (centres unmarked) [Example 39, 6-Isopropoxy-N-(pyrazolo[1,5-a]pyrimidin-3-yl)-2-((tetrahydrofuran-3-yl)methyl)-2H-indazole-5-carboxamide], for which the IC50 in series [1] (setting [3]) came out at 1.8 nM. Besides, the efflux ratio at 120 min, 1 μM in series [2] turned out to be 3.1.

As to `Cc1ccn2ncc(NC(=O)c3cc4cn(C5CCCOC5)nc4nc3OC3CCC3)c2n1` (single isomer, unassigned) [Example 133], in series [1] (setting [3]), the IC50 turned out to be 1.7 nM. Further, the efflux ratio at 120 min, 1 μM in series [2] was 2.6.

As to `COc1cccc(NC(=O)c2cc3cn(C4CCOCC4)nc3cc2OC(C)C)n1` [Example 66, 6-Isopropoxy-N-(6-methoxypyridin-2-yl)-2-(tetrahydro-2H-pyran-4-yl)-2H-indazole-5-carboxamide], the IC50 in series [1] (setting [3]) worked out at 1.4 nM. In series [2], the efflux ratio at 120 min, 1 μM was determined as 0.9.

As to `CC(C)Oc1cc2nn(C34CCC(C)(C3)OC4)cc2cc1C(=O)Nc1cccn(C)c1=O` (centres unmarked) [Example 57, 6-Isopropoxy-N-(1-methyl-2-oxo-1,2-dihydropyridin-3-yl)-2-(1-methyl-2-oxabicyclo[2.2.1]heptan-4-yl)-2H-indazole-5-carboxamide], the IC50 in series [1] (setting [3]) is 0.8 nM. Further, in series [2], the efflux ratio at 120 min, 1 μM was found to be 1.1.

As to `COCCCn1cc2cc(C(=O)Nc3cnn4cccnc34)c(OC(C)C)cc2n1` [Example 35, 6-Isopropoxy-2-(3-methoxypropyl)-N-(pyrazolo[1,5-a]pyrimidin-3-yl)-2H-indazole-5-carboxamide], in series [1] (setting [3]), the IC50 is 5 nM. Further, the efflux ratio at 120 min, 1 μM in series [2] came out at 1.1.

`Cc1cnc2c(NC(=O)c3cc4cn(C[C@@H]5CCOC5)nc4nc3OC(C)C)cnn2c1` (single isomer, unassigned) [Example 105]: the IC50 in series [1] (setting [3]) was 1.5 nM. Moreover, in series [2], the efflux ratio at 120 min, 1 μM was 4.8.

With `CC(C)Oc1cc2nn(C3CCOCC3)cc2cc1C(=O)Nc1ccn(C)n1` [Example 67, 6-Isopropoxy-N-(1-methyl-1H-pyrazol-3-yl)-2-(tetrahydro-2H-pyran-4-yl)-2H-indazole-5-carboxamide], the 50% inhibitory concentration (IC50) in series [1] (setting [3]) was 9.5 nM. Further, in series [2], the efflux ratio at 120 min, 1 μM turned out to be 4.6.

For the compound `CC(C)Oc1nc2nn(CCC(C)(C)O)cc2cc1C(=O)Nc1cccc(C(F)F)n1` [Example 32, N-(6-(difluoromethyl)pyridin-2-yl)-2-(3-hydroxy-3-methylbutyl)-6-isopropoxy-2H-pyrazolo[3,4-b]pyridine-5-carboxamide], in series [1] (setting [3]), the IC50 came to 0.4 nM. The efflux ratio at 120 min, 1 μM in series [2] amounted to 3.4.

As for `CC(C)Oc1nc2nn(C3CCOCC3)cc2cc1C(=O)Nc1cccc(C(F)F)n1` [Example 63, N-(6-(difluoromethyl)pyridin-2-yl)-6-isopropoxy-2-(tetrahydro-2H-pyran-4-yl)-2H-pyrazolo[3,4-b]pyridine-5-carboxamide], in series [1] (setting [3]), the IC50 worked out at 0.3 nM. The efflux ratio at 120 min, 1 μM in series [2] was found to be 1.

Consider `CC(C)Oc1cc2nn(C)cc2cc1C(=O)Nc1cccc(C(F)F)n1` [Example 41, N-(6-(difluoromethyl)pyridin-2-yl)-6-isopropoxy-2-methyl-2H-indazole-5-carboxamide], for which the IC50 in series [1] (setting [3]) came out at 3.2 nM. For the same compound, the efflux ratio at 120 min, 1 μM in series [2] came out at 0.3.

As to `COc1ncccc1NC(=O)c1cc2cn(CCC(C)(C)O)nc2nc1OC(C)C` [Example 40, 2-(3-Hydroxy-3-methylbutyl)-6-isopropoxy-N-(2-methoxypyridin-3-yl)-2H-pyrazolo[3,4-b]pyridine-5-carboxamide], the IC50 in series [1] (setting [3]) was 0.7 nM. The efflux ratio at 120 min, 1 μM in series [2] was 5.7.

On to `CC(C)Oc1cc2nn([C@H]3CCOC3)cc2cc1C(=O)Nc1cccc(C(F)F)n1` (single isomer, unassigned) [Example 44], for which, in series [1] (setting [3]), the IC50 came out at 2.2 nM. In addition, the efflux ratio at 120 min, 1 μM in series [2] stood at 0.8.

In series [1] (IRAK4 MSD Biochemical Assay (1 mM ATP, 2 h) IC50 (nM)), `CC(C)Oc1nc2nn(C[C@H]3CCOC3)cc2cc1C(=O)Nc1cnn2cccnc12` (single isomer, unassigned) [Example 118] had a concentration for half-maximal inhibition (IC50) of 0.8 nM. Besides, in series [2], the efflux ratio at 120 min, 1 μM is 3.1.

In the case of `CC(C)Oc1cc2nn(C[C@@H]3CCOC3)cc2cc1C(=O)Nc1cccc(C(F)F)n1` (single isomer, unassigned) [Example 21], in series [1] (setting [3]), the IC50 is 0.5 nM. Besides, the efflux ratio at 120 min, 1 μM in series [2] turned out to be 0.7.

As for `CC(C)Oc1nc2nn(C[C@H]3CCOC3)cc2cc1C(=O)Nc1ccn(C(F)F)n1` (single isomer, unassigned) [Example 110], the concentration for half-maximal inhibition (IC50) in series [1] (setting [3]) amounted to 2.8 nM. In addition, in series [2], the efflux ratio at 120 min, 1 μM was 2.2.

In the case of `Cl.O=C(Nc1cccc(C(F)F)n1)c1cc2cn(C3CCOCC3)nc2cc1OCC1CC(F)(F)C1` [Example 49, 6-((3,3-Difluorocyclobutyl)methoxy)-N-(6-(difluoromethyl)pyridin-2-yl)-2-(tetrahydro-2H-pyran-4-yl)-2H-indazole-5-carboxamide Hydrochloride], in series [1] (setting [3]), the IC50 amounted to 2 nM. In addition, in series [2], the efflux ratio at 120 min, 1 μM came to 1.4.
